The source of these data is patent US9802941B2, “Compounds and methods for inhibiting histone demethylases” (Gilead Sciences, Inc., priority 2014, dated 2017).

Read-outs that look alike come from different tables or passages of the source.

Type in all cases: biochemical
One assay has as its target T1, KDM4C (JMJD2C) (Homo sapiens, UniProt Q9H3R0).
T1 construct: KDM4C; BRIC, Denmark; 1-349; E. coli; host or cells: E. coli
T1 sequence (Q9H3R0 1-349): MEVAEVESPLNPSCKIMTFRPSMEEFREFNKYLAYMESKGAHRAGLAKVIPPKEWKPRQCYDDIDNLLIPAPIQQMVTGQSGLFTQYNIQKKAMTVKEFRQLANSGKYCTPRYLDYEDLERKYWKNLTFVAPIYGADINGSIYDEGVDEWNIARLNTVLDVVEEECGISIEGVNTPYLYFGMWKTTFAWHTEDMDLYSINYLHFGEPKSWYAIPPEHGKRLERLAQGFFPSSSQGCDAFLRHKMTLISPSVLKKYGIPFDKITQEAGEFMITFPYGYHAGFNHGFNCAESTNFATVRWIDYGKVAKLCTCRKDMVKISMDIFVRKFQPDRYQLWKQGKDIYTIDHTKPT
Nature of the assay: Histone lysine demethylase AlphaLISA assay, KDM4C. The method in brief: (§1)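 AlphaLISA demethylase assay: enzyme in buffer of 50 mM Hepes (pH 7.4-8.0), 0.003-0.01% Tween-20, 0.1% BSA, 5 μM (NH4)2Fe(SO4)2 preincubated 10 min with compound before substrate addition at room temperature. Product detected with acceptor beads then streptavidin donor beads, read after dark incubation.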
Background: In Alpha technology, singlet oxygen from a donor bead excites a nearby acceptor bead.

A further assay deals with T2, KDM2B (FBXL10) (Homo sapiens, UniProt Q8NHM5).
T2 construct: KDM2B; BPS,; 1-650; Bac; purchased BPS Bioscience, US; host or cells: baculovirus system
T2 sequence (Q8NHM5 1-650): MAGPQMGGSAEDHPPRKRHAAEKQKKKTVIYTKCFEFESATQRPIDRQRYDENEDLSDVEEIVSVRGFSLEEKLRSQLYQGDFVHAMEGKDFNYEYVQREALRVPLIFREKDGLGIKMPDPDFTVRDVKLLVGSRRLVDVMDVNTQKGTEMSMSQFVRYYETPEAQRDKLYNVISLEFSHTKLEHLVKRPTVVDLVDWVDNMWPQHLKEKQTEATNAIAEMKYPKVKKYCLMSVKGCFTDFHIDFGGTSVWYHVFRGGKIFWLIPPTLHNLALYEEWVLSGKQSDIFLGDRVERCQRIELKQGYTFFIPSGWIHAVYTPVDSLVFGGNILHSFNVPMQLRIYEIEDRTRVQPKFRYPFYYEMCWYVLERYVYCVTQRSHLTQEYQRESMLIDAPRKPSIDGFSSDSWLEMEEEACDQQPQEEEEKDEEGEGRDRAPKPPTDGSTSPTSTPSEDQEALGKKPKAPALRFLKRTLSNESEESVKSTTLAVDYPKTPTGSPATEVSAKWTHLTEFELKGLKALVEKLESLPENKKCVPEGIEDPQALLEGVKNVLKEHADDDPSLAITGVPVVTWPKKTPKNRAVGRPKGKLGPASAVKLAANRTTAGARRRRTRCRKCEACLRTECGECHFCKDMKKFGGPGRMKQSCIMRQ
Briefly: Histone lysine demethylase AlphaLISA assay, KDM2B. The method in brief:
as §1

The next assay addresses T3, PHF8 (KDM7) (Homo sapiens, UniProt Q9UPP1).
T3 construct: KDM7 (PHF8); BRIC; 1-1322; Bac
Nature of the assay: Histone lysine demethylase AlphaLISA assay, PHF8. In a few lines:
as §1

The next assay addresses T4, KDM5B (PLU-1) (Homo sapiens, UniProt Q9UGL1).
T4 construct: BRIC; 1-809; E. coli; host or cells: E. coli
T4 sequence (Q9UGL1 1-809): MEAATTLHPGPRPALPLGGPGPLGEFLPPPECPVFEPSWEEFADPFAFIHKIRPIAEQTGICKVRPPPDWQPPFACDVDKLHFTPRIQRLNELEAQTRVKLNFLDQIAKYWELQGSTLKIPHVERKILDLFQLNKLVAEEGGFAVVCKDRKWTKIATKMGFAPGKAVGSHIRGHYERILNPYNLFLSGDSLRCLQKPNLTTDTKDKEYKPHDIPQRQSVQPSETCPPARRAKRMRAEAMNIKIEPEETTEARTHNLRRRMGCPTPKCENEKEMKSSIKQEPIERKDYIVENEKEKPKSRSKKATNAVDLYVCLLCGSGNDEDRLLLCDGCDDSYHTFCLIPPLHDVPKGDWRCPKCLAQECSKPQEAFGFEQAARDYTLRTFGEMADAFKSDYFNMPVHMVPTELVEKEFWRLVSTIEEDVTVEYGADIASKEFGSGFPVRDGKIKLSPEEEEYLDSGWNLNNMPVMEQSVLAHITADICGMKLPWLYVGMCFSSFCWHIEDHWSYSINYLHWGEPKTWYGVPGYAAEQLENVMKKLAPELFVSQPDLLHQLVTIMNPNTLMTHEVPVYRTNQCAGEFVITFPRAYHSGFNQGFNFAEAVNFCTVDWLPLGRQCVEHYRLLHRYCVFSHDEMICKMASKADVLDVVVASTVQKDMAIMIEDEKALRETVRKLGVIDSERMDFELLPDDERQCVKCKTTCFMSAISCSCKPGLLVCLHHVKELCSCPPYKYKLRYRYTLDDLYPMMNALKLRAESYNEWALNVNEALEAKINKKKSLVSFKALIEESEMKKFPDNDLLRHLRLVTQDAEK
Briefly: Histone lysine demethylase AlphaLISA assay, KDM5B. In a few lines:
as §1

Where [1] appears, read: AlphaLISA assay, read-out: HDME Inhibition KDM4C (IC50).
Setting [2] is: AlphaLISA, in vitro, read-out: HDME Inhibition KDM4C.
Where [3] appears, read: AlphaLISA, in vitro, read-out: HDME Inhibition KDM2B.
The mark [4] stands for this setting: AlphaLISA assay, read-out: HDME Inhibition PHF8 (IC50).
The mark [5] stands for this setting: AlphaLISA, in vitro, read-out: HDME Inhibition PHF8.
Where [6] appears, read: AlphaLISA assay, read-out: HDME Inhibition KDM5B (IC50).
Setting [7] is: AlphaLISA, in vitro, read-out: HDME Inhibition KDM5B.

T3 sequence (Q9UPP1 37-440 limits assumed): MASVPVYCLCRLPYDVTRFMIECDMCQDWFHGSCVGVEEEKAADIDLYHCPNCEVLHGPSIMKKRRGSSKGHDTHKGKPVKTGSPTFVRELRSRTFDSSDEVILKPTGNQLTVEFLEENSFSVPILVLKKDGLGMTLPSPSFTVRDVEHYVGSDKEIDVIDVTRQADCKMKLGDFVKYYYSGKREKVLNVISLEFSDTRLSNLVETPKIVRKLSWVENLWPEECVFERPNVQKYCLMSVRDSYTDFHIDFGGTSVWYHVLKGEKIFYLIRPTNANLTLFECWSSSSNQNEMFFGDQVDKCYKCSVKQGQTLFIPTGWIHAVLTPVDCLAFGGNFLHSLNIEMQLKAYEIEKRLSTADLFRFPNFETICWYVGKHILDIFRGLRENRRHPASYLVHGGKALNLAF

As to `CC(C)C[C@@H](CO)NCc1cc(C(=O)O)cc(CO)n1` [Compound 79, 2-({[(2S)-1-hydroxy-4-methylpentan-2-yl]amino}methyl)-6-(hydroxymethyl)pyridine-4-carboxylic acid], the IC50 at KDM4C (JMJD2C) (setting [1]) is over 10 µM; on KDM4C (JMJD2C) (setting [2]), over 10 µM; on KDM2B (FBXL10) (AlphaLISA assay, read-out: HDME Inhibition KDM2B (IC50)), over 10 µM; at KDM2B (FBXL10) (setting [3]) it was over 10 µM; at PHF8 (KDM7) (setting [4]) it was over 10 µM; at PHF8 (KDM7) (setting [5]), over 10 µM. For the same compound, the IC50 on KDM5B (PLU-1) (setting [6]) and on KDM5B (PLU-1) (setting [7]) was over 10 µM throughout.

Consider `CCOc1ccc(CC(C)C)c(CNCc2cc(C(=O)O)cc(CO)n2)n1` [Compound 101, 2-[({[6-ethoxy-3-(2-methylpropyl)pyridin-2-yl]methyl}amino)methyl]-6-(hydroxymethyl)pyridine-4-carboxylic acid], for which the IC50 on KDM4C (JMJD2C) (setting [1]) is over 10 µM; at KDM4C (JMJD2C) (setting [2]), over 10 µM; on KDM2B (FBXL10) (setting [3]), 0.105 µM; on PHF8 (KDM7) (setting [5]), 1.33 µM; on KDM5B (PLU-1) (setting [7]), 6.11 µM.

In the case of `CCc1cnc(CNCc2cc(C(=O)O)cc(C)n2)n1CCCC(C)C` [Compound 91, 2-[({[5-ethyl-1-(4-methylpentyl)-1H-imidazol-2-yl]methyl}amino)methyl]-6-methylpyridine-4-carboxylic acid], the IC50 is over 10 µM on KDM4C (JMJD2C) (setting [1]); over 10 µM on KDM4C (JMJD2C) (setting [2]); 0.328 µM at KDM2B (FBXL10) (setting [3]); 1.11 µM on PHF8 (KDM7) (setting [5]); over 10 µM at KDM5B (PLU-1) (setting [6]); over 10 µM on KDM5B (PLU-1) (setting [7]).

`CCc1nnc(CNCc2cc(C(=O)O)cc(C)n2)n1C/C=C/c1ccccc1` [Compound 68, 2-{[({5-ethyl-4-[(2E)-3-phenylprop-2-en-1-yl]-4H-1,2,4-triazol-3-yl}methyl)amino]methyl}-6-methylpyridine-4-carboxylic acid]: the IC50 on KDM4C (JMJD2C) (setting [1]) is over 10 µM; on KDM4C (JMJD2C) (setting [2]) it was over 10 µM; at KDM2B (FBXL10) (setting [3]), 1.68 µM; at PHF8 (KDM7) (setting [5]), 1.8 µM; on KDM5B (PLU-1) (setting [6]) it was over 10 µM; at KDM5B (PLU-1) (setting [7]), over 10 µM.

Consider `O=C(O)c1cc(CO)nc(CNCc2nncn2CCCc2ccccc2)c1` [Compound 78, 2-(hydroxymethyl)-6-[({[4-(3-phenylpropyl)-4H-1,2,4-triazol-3-yl]methyl}amino)methyl]pyridine-4-carboxylic acid], for which the IC50 at KDM4C (JMJD2C) (setting [1]) is over 10 µM; on KDM4C (JMJD2C) (setting [2]) it was over 10 µM; on KDM2B (FBXL10) (setting [3]), 0.34 µM; at PHF8 (KDM7) (setting [5]), 1.14 µM; on KDM5B (PLU-1), 0.641 µM.

On to `Cc1nnc(CNCc2cc(C(=O)O)cc(CO)n2)n1CCCC(C)C` [Compound 70, 2-(hydroxymethyl)-6-[({[5-methyl-4-(4-methylpentyl)-4H-1,2,4-triazol-3-yl]methyl}amino)methyl]pyridine-4-carboxylic acid], for which the IC50 at KDM4C (JMJD2C) (setting [1]) is over 10 µM; at KDM4C (JMJD2C) (setting [2]), over 10 µM; on KDM2B (FBXL10) (setting [3]), 0.485 µM; at PHF8 (KDM7) (setting [5]) it was 1.75 µM; on KDM5B (PLU-1) it was 0.559 µM.

Turning to `CC(C)Cc1ccc(OCc2ccccc2)nc1CNCc1cc(C(=O)O)cc(CO)n1` [Compound 97, 2-[({[6-(benzyloxy)-3-(2-methylpropyl)pyridin-2-yl]methyl}amino)methyl]-6-(hydroxymethyl)pyridine-4-carboxylic acid], the IC50 at KDM4C (JMJD2C) (setting [1]) is over 10 µM; on KDM4C (JMJD2C) (setting [2]) it was over 10 µM; at KDM2B (FBXL10) (setting [3]), 0.308 µM; on PHF8 (KDM7) (setting [4]), over 10 µM; on PHF8 (KDM7) (setting [5]), over 10 µM; at KDM5B (PLU-1) (setting [6]), over 10 µM. The IC50 on KDM5B (PLU-1) (setting [7]) was over 10 µM.

On to `O=C(O)c1cc(CO)nc(CNCCc2nncn2Cc2ccc(C(F)(F)F)cc2)c1` [Compound 66, 2-(hydroxymethyl)-6-({[2-(4-{[4-(trifluoromethyl)phenyl]methyl}-4H-1,2,4-triazol-3-yl)ethyl]amino}methyl)pyridine-4-carboxylic acid], for which the IC50 at KDM4C (JMJD2C) (setting [1]) is over 10 µM; on KDM4C (JMJD2C) (setting [2]), over 10 µM; at KDM2B (FBXL10) (setting [3]), 5.77 µM; at PHF8 (KDM7) (setting [4]), over 10 µM; on PHF8 (KDM7) (setting [5]), over 10 µM; on KDM5B (PLU-1) (setting [7]), 0.943 µM.

Regarding `Cc1cc(C(=O)O)cc(CNCc2nnc3n2C(c2ccccc2)CNC3)n1` (centres unmarked) [Compound 113, 2-methyl-6-{[({5-phenyl-5H,6H,7H,8H-[1,2,4]triazolo[4,3-a]pyrazin-3-yl}methyl)amino]methyl}pyridine-4-carboxylic acid], the IC50 at KDM4C (JMJD2C) (setting [1]) is over 10 µM; on KDM4C (JMJD2C) (setting [2]), over 10 µM; on KDM2B (FBXL10) (setting [3]), 2.83 µM; at PHF8 (KDM7) (setting [4]) it was over 10 µM; at PHF8 (KDM7) (setting [5]) it was over 10 µM; on KDM5B (PLU-1) (setting [6]), over 10 µM. Also, the IC50 on KDM5B (PLU-1) (setting [7]) is over 10 µM.

Take `Cc1cc(C(=O)O)cc(CNCc2nccn2Cc2cccc(C#N)c2)n1` [Compound 47, 2-{[({1-[(3-cyanophenyl)methyl]-1H-imidazol-2-yl}methyl)amino]methyl}-6-methylpyridine-4-carboxylic acid]: the IC50 on KDM4C (JMJD2C) (setting [1]) was over 10 µM; on KDM4C (JMJD2C) (setting [2]), over 10 µM; on KDM2B (FBXL10) (setting [3]) it was 1.26 µM; at PHF8 (KDM7) (setting [5]), 0.391 µM; against KDM5B (PLU-1) it was 4.08 µM.

For `CCc1nnc(CNCc2cc(C(=O)O)cc(CO)n2)n1CCCC(C)C` [Compound 94, 2-[({[5-ethyl-4-(4-methylpentyl)-4H-1,2,4-triazol-3-yl]methyl}amino)methyl]-6-(hydroxymethyl)pyridine-4-carboxylic acid], the IC50 was over 10 µM at KDM4C (JMJD2C) (setting [1]); over 10 µM on KDM4C (JMJD2C) (setting [2]); 0.047 µM at KDM2B (FBXL10) (setting [3]); 2.03 µM at PHF8 (KDM7) (setting [5]); over 10 µM on KDM5B (PLU-1) (setting [6]); over 10 µM on KDM5B (PLU-1) (setting [7]).

For the compound `Cc1cc(C(=O)O)cc(CNCc2nncn2CCCc2ccccc2)n1` [Compound 56], the IC50 on KDM4C (JMJD2C) (setting [1]) was over 10 µM; at KDM4C (JMJD2C) (setting [2]), over 10 µM; on KDM2B (FBXL10) (setting [3]), 0.482 µM; on PHF8 (KDM7) (setting [5]), 0.883 µM; at KDM5B (PLU-1) (setting [6]), over 10 µM; at KDM5B (PLU-1) (setting [7]) it was over 10 µM.

Turning to `Cc1nc(CNCc2cc(C(=O)O)cc(CO)n2)n(Cc2ccc(F)cc2)c1C` [Compound 83, 2-{[({1-[(4-fluorophenyl)methyl]-4,5-dimethyl-1H-imidazol-2-yl}methyl)amino]methyl}-6-(hydroxymethyl)pyridine-4-carboxylic acid], the IC50 was over 10 µM on KDM4C (JMJD2C) (setting [1]); over 10 µM on KDM4C (JMJD2C) (setting [2]); 1.53 µM on KDM2B (FBXL10) (setting [3]); 4.95 µM at PHF8 (KDM7) (setting [5]); 0.755 µM on KDM5B (PLU-1).
